Our source for the ΔGH values is patent publication US4411890A, “Synthetic peptides having pituitary growth hormone releasing activity” (Beckman Instruments, Inc., priority 1981, dated 1983).

Where a SMILES comes first, the peptide text is derived from it.

The test system of one assay is pituitaries. As to the kind of experiment: In vitro growth hormone release study (incubated rat pituitaries, GH by RIA). The class given is cell-based. To be noted: GH released at I3, I4 (I5) minus P2, mean ± SEM. The method, then:
Female rats of the CD-1 strain were housed in a constant temperature room at 24° C. with 14 hours light and 10 hours darkness. The rats were fed Purina brand rat chow ab libitum. All studies were started between 0800 and 1000 hours.
Pituitaries were removed from 20 day old female rats. In each polytetrafluoroethylene beaker (10 ml) was incubated two pituitaries at 36° C. in 1 ml of lactated Ringer's solution in a Dubnoff Shaker (90 cycles/min.). All medium in each beaker was removed each hour (e.g., P1, P2, I3, I4, I5) and then fresh medium was added back to each beaker. Each medium removed was assayed for GH, in duplicate, by a standard radioimmunoassay (RIA).
The growth hormone agonist of Example 1 was not added to the incubation mediums employed during the first hour of the incubation period (P1) or to the incubation mediums employed during the second hour of the incubation period (P2). The growth hormone agonist of Example 1 was dissolved in dimethylsulfoxide (DMSO; 10:1, agonist:DMSO), added to each incubation medium employed during the third hour of the incubation period (I3), to each medium employed during the fourth hour of the incubation period (I4), and, when performed, to each medium employed during the fifth hour of the incubation period (I5). The release of growth hormone was recorded as ΔGH and calculated by subtracting the amount of GH released at P2 from that released at I3, I4, and, when performed, I5. The agonist activity was determined from the release at I3, I4, and, when performed, I5. The mean of the ΔGH values obtained from the three beakers per dosage level measured at I3, I4, and, when performed, I5 are set forth in Table VI.

Assay [1] relates to Female rats of The CD-1 strain. As to the kind of experiment: In vivo growth hormone release study (subcutaneous injection, serum GH by RIA). Further details: species or system rat. The note with it: serum GH about 15 minutes after injection, 21 day old female rats, mean ± SEM. As to the method:
Female rats of The CD-1 strain were housed in a constant temperature room at 24° C. with 14 hours light and 10 hours darkness. The rats were fed Purina brand rat chow ab libitum. All studies were started between 0800 and 1000 hours. Each female rat (21 days old; eight rats per dosage level shown in Table XXVI) was injected subcutaneously with a desired dosage of the peptide of Example 6. Approximately 15 minutes after injection, the rat was guillotined. A blood sample was collected from the guillotined rat. The blood sample was centrifuged and a serum sample was collected therefrom. Each serum sample was assayed for GH, in duplicate, by a standard radioimmunoassay (RIA).

The mark [2] stands for this setting: dosage 30 ng/ml incubation medium.
The mark [3] stands for this setting: dosage 300 ng/ml incubation medium.
[4] abbreviates: dosage 3,000 ng/ml incubation medium.
The mark [5] stands for this setting: dosage 30,000 ng/ml incubation medium.
[6] abbreviates: dosage 1 ng/ml incubation medium.
[7] abbreviates: dosage 10 ng/ml incubation medium.
Setting [8] is: dosage 10.0 μg/ml serum (so in the source).
[9] abbreviates: dosage 100 ng/ml incubation medium.
The mark [10] stands for this setting: dosage 1,000 ng/ml incubation medium.
The mark [11] stands for this setting: dosage 10,000 ng/ml incubation medium.

For the compound H2 -Tyr-D-Trp-Ala-Trp-D-Phe-Lys-NH2, the ΔGH in the assay with pituitaries (setting [2]) was 1,346 ± 328 ng/ml incubation medium; with pituitaries (setting [3]) it was 2,160 ± 166 ng/ml incubation medium; with pituitaries (setting [4]) it was 1,630 ± 135 ng/ml incubation medium; in the assay on pituitaries (setting [5]) it was 1,318 ± 247 ng/ml incubation medium.

As for `C[C@H](NC(=O)[C@@H](Cc1c[nH]c2ccccc12)NC(=O)[C@@H](N)Cc1c[nH]cn1)C(=O)N[C@@H](Cc1c[nH]c2ccccc12)C(=O)N[C@H](Cc1ccccc1)C(=O)N[C@@H](CCC(N)=O)C(N)=O` [H2 -His-D-Trp-Ala-Trp-D-Phe-Gln-NH2] (HELM PEPTIDE1{H.[dW].A.W.[dF].Q.[am]}$$$$V2.0), the ΔGH in the assay on pituitaries (setting [6]) is on record as 5 ± 136 ng/ml incubation medium; with pituitaries (dosage 3 ng/ml incubation medium), 140 ± 168 ng/ml incubation medium; in the assay on pituitaries (setting [7]), 275 ± 66 ng/ml incubation medium; in assay [1] (dosage 1.0 μg/ml serum (so in the source)) it was 1.4 ± 0.9 ng/ml subcutaneous; in assay [1] (dosage 3.0 μg/ml serum (so in the source)), 3.8 ± 2.1 ng/ml subcutaneous; in assay [1] (setting [8]), 32.1 ± 11.4 ng/ml subcutaneous.

In the case of `NC(=O)CC[C@H](NC(=O)[C@@H](Cc1ccccc1)NC(=O)[C@H](Cc1c[nH]c2ccccc12)NC(=O)CNC(=O)[C@@H](Cc1c[nH]c2ccccc12)NC(=O)[C@@H](N)Cc1ccc(O)cc1)C(N)=O` [H2 -Tyr-D-Trp-Gly-Trp-D-Phe-Gln-NH2] (HELM PEPTIDE1{Y.[dW].G.W.[dF].Q.[am]}$$$$V2.0), the ΔGH in the assay with pituitaries (setting [2]) is on record as 103 ± 248 ng/ml incubation medium; in the assay on pituitaries (setting [9]), 167 ng/ml incubation medium; with pituitaries (setting [10]), 1,092 ng/ml incubation medium.

Turning to `C[C@H](NC(=O)[C@@H](Cc1c[nH]c2ccccc12)NC(=O)[C@@H](N)Cc1ccc(O)cc1)C(=O)N[C@@H](Cc1c[nH]c2ccccc12)C(=O)N[C@H](Cc1ccccc1)C(=O)N[C@@H](CC(N)=O)C(N)=O` [H2 -Tyr-D-Trp-Ala-Trp-D-Phe-Asn-NH2] (HELM PEPTIDE1{Y.[dW].A.W.[dF].N.[am]}$$$$V2.0), the ΔGH with pituitaries (setting [2]) is given as 244 ng/ml incubation medium; in the assay on pituitaries (setting [9]) it was 528 ± 184 ng/ml incubation medium; with pituitaries (setting [10]) it was 1,670 ± 126 ng/ml incubation medium.

On to “H2 -3-N-Me-His-D-Trp-Ala-Trp-D-Phe-Lys-NH2”, for which the ΔGH with pituitaries (setting [6]) is reported as 165 ± 136 ng/ml incubation medium; with pituitaries (setting [7]) it was 1,857 ± 254 ng/ml incubation medium; in assay [1] (dosage 0.3 μg/ml serum (so in the source)) it was 45.0 ± 10 ng/ml subcutaneous; in assay [1] (setting [8]), 128 ± 16 ng/ml subcutaneous.

For `C[C@H](NC(=O)[C@@H](Cc1c[nH]c2ccccc12)NC(=O)[C@@H](N)Cc1c[nH]cn1)C(=O)N[C@@H](Cc1c[nH]c2ccccc12)C(=O)N[C@H](Cc1ccccc1)C(=O)N[C@@H](CCCN)C(N)=O` [H2 -His-D-Trp-Ala-Trp-D-Phe-Orn-NH2] (HELM PEPTIDE1{H.[dW].A.W.[dF].[Orn].[am]}$$$$V2.0), the ΔGH is recorded as -295 ± 93 ng/ml incubation medium in the assay on pituitaries (setting [6]) and 356 ± 92 ng/ml incubation medium with pituitaries (setting [7]).

Regarding `C[C@H](NC(=O)[C@@H](Cc1c[nH]c2ccccc12)NC(=O)[C@@H](N)Cc1ccc(O)cc1)C(=O)N[C@@H](Cc1c[nH]c2ccccc12)C(=O)N[C@H](Cc1ccccc1)C(=O)N[C@@H](CCC(N)=O)C(N)=O` [H2 -Tyr-D-Trp-Ala-Trp-D-Phe-Gln-NH2] (HELM PEPTIDE1{Y.[dW].A.W.[dF].Q.[am]}$$$$V2.0), the ΔGH with pituitaries (setting [7]) is listed as 240 ng/ml incubation medium; in the assay with pituitaries (setting [9]) it was 2,000 ± 523 ng/ml incubation medium; with pituitaries (setting [10]), 4,235 ± 785 ng/ml incubation medium; with pituitaries (setting [11]), 4,141 ± 576 ng/ml incubation medium.

As for `CSCC[C@H](NC(=O)[C@@H](Cc1ccccc1)NC(=O)[C@H](Cc1c[nH]c2ccccc12)NC(=O)[C@H](C)NC(=O)[C@@H](Cc1c[nH]c2ccccc12)NC(=O)[C@@H](N)Cc1ccc(O)cc1)C(N)=O` [H2 -Tyr-D-Trp-Ala-Trp-D-Phe-Met-NH2] (HELM PEPTIDE1{Y.[dW].A.W.[dF].M.[am]}$$$$V2.0), the results for the ΔGH in the assay on pituitaries (setting [2]), in the assay on pituitaries (setting [3]) and in the assay with pituitaries (setting [10]) were 456 ± 151 ng/ml incubation medium, 1,260 ± 245 ng/ml incubation medium and 1,832 ± 441 ng/ml incubation medium, respectively.

As for `C[C@H](NC(=O)[C@@H](Cc1c[nH]c2ccccc12)NC(=O)[C@@H](N)Cc1ccc(O)cc1)C(=O)N[C@@H](Cc1c[nH]c2ccccc12)C(=O)N[C@H](Cc1ccccc1)C(=O)N[C@@H](Cc1ccccc1)C(N)=O` [H2 -Tyr-D-Trp-Ala-Trp-D-Phe-Phe-NH2] (HELM PEPTIDE1{Y.[dW].A.W.[dF].F.[am]}$$$$V2.0), the ΔGH in the assay with pituitaries (setting [2]) is reported as 10 ± 57 ng/ml incubation medium; in the assay with pituitaries (setting [3]) it was 330 ng/ml incubation medium; in the assay with pituitaries (setting [4]) it was 710 ng/ml incubation medium; in the assay with pituitaries (setting [5]) it was 1,484 ± 135 ng/ml incubation medium.

`CC(C)[C@H](NC(=O)[C@@H](Cc1c[nH]c2ccccc12)NC(=O)[C@@H](N)Cc1c[nH]cn1)C(=O)N[C@@H](Cc1c[nH]c2ccccc12)C(=O)N[C@H](Cc1ccccc1)C(=O)N[C@@H](CCCCN)C(N)=O` [H2 -His-D-Trp-Val-Trp-D-Phe-Lys-NH2] (HELM PEPTIDE1{H.[dW].V.W.[dF].K.[am]}$$$$V2.0): the ΔGH in the assay on pituitaries (setting [2]) is reported as -118 ± 65 ng/ml incubation medium.

For `C[C@H](NC(=O)[C@@H](Cc1c[nH]c2ccccc12)NC(=O)[C@@H](N)Cc1ccc(O)cc1)C(=O)N[C@@H](Cc1c[nH]c2ccccc12)C(=O)N[C@H](Cc1ccccc1)C(=O)N[C@H](C(N)=O)[C@@H](C)O` [H2 -Tyr-D-Trp-Ala-Trp-D-Phe-Thr-NH2] (HELM PEPTIDE1{Y.[dW].A.W.[dF].T.[am]}$$$$V2.0), the ΔGH was 94 ± 69 ng/ml incubation medium with pituitaries (setting [7]), 650 ± 320 ng/ml incubation medium with pituitaries (setting [9]), 2,167 ± 591 ng/ml incubation medium in the assay with pituitaries (setting [10]) and 2,957 ± 834 ng/ml incubation medium in the assay on pituitaries (setting [11]).

On to `C[C@H](NC(=O)[C@@H](Cc1c[nH]c2ccccc12)NC(=O)[C@@H](N)Cc1ccc(O)cc1)C(=O)N[C@@H](Cc1c[nH]c2ccccc12)C(=O)N[C@H](Cc1ccccc1)C(=O)N[C@@H](CCC(=O)O)C(N)=O` [H2 -Tyr-D-Trp-Ala-Trp-D-Phe-Glu-NH2] (HELM PEPTIDE1{Y.[dW].A.W.[dF].E.[am]}$$$$V2.0), for which the ΔGH is given as 224 ng/ml incubation medium in the assay on pituitaries (setting [2]), 472 ± 104 ng/ml incubation medium with pituitaries (setting [3]), 1,404 ± 179 ng/ml incubation medium with pituitaries (setting [4]) and 1,909 ± 270 ng/ml incubation medium in the assay on pituitaries (setting [5]).

Regarding `NCCCC[C@H](NC(=O)[C@@H](Cc1ccccc1)NC(=O)[C@H](Cc1c[nH]c2ccccc12)NC(=O)[C@H](CO)NC(=O)[C@@H](Cc1c[nH]c2ccccc12)NC(=O)[C@@H](N)Cc1c[nH]cn1)C(N)=O` [H2 -His-D-Trp-Ser-Trp-D-Phe-Lys-NH2] (HELM PEPTIDE1{H.[dW].S.W.[dF].K.[am]}$$$$V2.0), the ΔGH in the assay on pituitaries (setting [7]) is given as 161 ± 157 ng/ml incubation medium; with pituitaries (setting [2]), 705 ± 149 ng/ml incubation medium.

`C[C@H](NC(=O)[C@@H](Cc1c[nH]c2ccccc12)NC(=O)[C@@H](N)Cc1ccc(O)cc1)C(=O)N[C@@H](Cc1c[nH]c2ccccc12)C(=O)N[C@H](Cc1ccccc1)C(=O)N[C@@H](CCC(N)=O)C(=O)O` [H2 -Tyr-D-Trp-Ala-Trp-D-Phe-Gln-OH] (HELM PEPTIDE1{Y.[dW].A.W.[dF].Q}$$$$V2.0): the ΔGH is given as 753 ± 559 ng/ml incubation medium in the assay with pituitaries (setting [9]), 2,759 ± 515 ng/ml incubation medium in the assay with pituitaries (setting [10]) and 3,994 ± 1,214 ng/ml incubation medium with pituitaries (setting [11]).
